Measurements from patent US7901700B2, “Bifenthrin/acetamiprid compositions for control of general household pests” (FMC Corporation, priority 2004, dated 2011).

Experiments:
[1] = tested on: Red Imported Fire Ant; test: Red imported fire ant knockdown and mortality, spray chamber application; assay type: in vivo, Solenopsis invicta
Procedure: The compositions of the present invention were tested for red imported fire ant activity in the following manner:
(§1) Test compositions made up of TALSTARONE® MULTI-INSECTICIDE and a 70% wettable powder of acetamiprid in distilled water were prepared that provided appropriate rates of application of combinations of bifenthrin and acetamiprid, as well as bifenthrin and acetamiprid alone.
(§2) The spray chamber was then calibrated to deliver the treatment solution at the desired volume and pressure over the desired area on the chamber shelf. Spray chamber shelf height was adjusted to approximately 18 inches from the spray tip. The shelf was then covered with aluminum foil and the center of the shelf from front-to-back and end-to-end was determined. The red imported fire ants to be treated were collected and placed in screened 16 oz paper cups. The paper cups were placed onto the aluminum foil on the spray chamber shelf. The sprayer was activated and the test compound was applied to each paper cup interior. Red imported fire ant knockdown and mortality were measured.

[2] = tested on: German cockroach; test: German cockroach knockdown and mortality, spray chamber application; assay type: in vivo
Procedure: The compositions of the present invention were tested for German cockroach activity in the following manner:
as §1
The spray chamber was then calibrated to deliver the treatment solution at the desired volume and pressure over the desired area on the chamber shelf. Spray chamber shelf height was adjusted to approximately 18 inches from the spray tip. The shelf was then covered with aluminum foil and the center of the shelf from front-to-back and end-to-end was determined. A desired number of 4.0″ sieve circles were marked on the aluminum foil with a permanent marker. The inside of a desired number of PVC rings were coated with a petroleum jelly/mineral oil mixture (1:2 ratio). The PVC rings were place on the sieve circles. 10 male German cockroaches were placed inside each PVC ring. The sprayer was activated and the test compound was applied to each PVC ring interior. German cockroach knockdown and mortality were measured.

[3] = tested on: Bed Bugs; test: Bed bug mortality, spray chamber application; assay type: in vivo
Procedure: The compositions of the present invention were tested for bed bug activity in the following manner:
as §1
as §2, with “approximately 10.5” for “approximately 18”, “The bed bugs” for “The red imported fire ants”, “interior. Bed bug” for “interior. Red imported fire ant knockdown and”, “mortality was” for “mortality were”

[4] = tested on: House Flies; test: House fly knockdown and mortality, hand held sprayer application; assay type: in vivo
Procedure: The compositions of the present invention were tested for house fly activity in the following manner:
as §1
A DeVilbiss hand held sprayer was used to deliver the treatment solution at the desired volume and pressure. The house flies to be treated were collected and placed in screened 16 oz paper cups. The hand held sprayer was activated and the test compound was applied to each paper cup interior. House fly knockdown and mortality were measured.

[5] = Rate of Appln. 300 PPM (0.03% by weight)
[6] = Rate of Appln. 600 PPM (0.06% by weight)
[7] = Rate of Appln. 10 PPM (0.001% by weight)
[8] = Rate of Appln. 50 PPM (0.005% by weight)
[9] = Rate of Appln. 200 PPM (0.02% by weight)
[10] = Rate of Appln. 125 PPM (0.0125% by weight)
[11] = Rate of Appln. 250 PPM (0.025% by weight)
[12] = Rate of Appln. 500 PPM (0.05% by weight)
[13] = Rate of Appln. 100 PPM (0.01% by weight)
[14] = Rate of Appln. 1000 PPM (0.10% by weight)

Cc1c(COC(=O)[C@@H]2[C@H](/C=C(\Cl)C(F)(F)F)C2(C)C)cccc1-c1ccccc1 (racemic) [A, 2-methylbiphenyl-3-ylmethyl(Z)-(1RS)-cis-3-(2-chloro-3,3,3-trifluoroprop-1-enyl)-2,2-dimethylcyclopropanecarboxylate]
Knockdown Rate @ 10 minutes [1, 5]: 63%
Knockdown Rate @ 15 minutes [1, 5]: 100%
Knockdown Rate @ 30 minutes [1, 5]: 100%
Mortality Rate @ 60 minutes [1, 5]: 100%
Mortality Rate @ 120 minutes [1, 5]: 100%
Mortality Rate @ 240 minutes [1, 5]: 100%
Knockdown Rate @ 10 minutes [1, 6]: 78%
Knockdown Rate @ 15 minutes [1, 6]: 100%
Knockdown Rate @ 30 minutes [1, 6]: 100%
Mortality Rate @ 60 minutes [1, 6]: 100%
Mortality Rate @ 120 minutes [1, 6]: 100%
Mortality Rate @ 240 minutes [1, 6]: 100%
Knockdown Rate @ 10 minutes [2, 7]: 0%
Knockdown Rate @ 15 minutes [2, 7]: 3%
Knockdown Rate @ 30 minutes [2, 7]: 23%
Mortality Rate @ 60 minutes [2, 7]: 40%
Mortality Rate @ 240 minutes [2, 7]: 50%
Knockdown Rate @ 10 minutes [2, 8]: 0%
Knockdown Rate @ 15 minutes [2, 8]: 0%
Knockdown Rate @ 30 minutes [2, 8]: 0%
Mortality Rate @ 60 minutes [2, 8]: 38%
Mortality Rate @ 240 minutes [2, 8]: 60%
Knockdown Rate @ 10 minutes [2, 9]: 0%
Knockdown Rate @ 15 minutes [2, 9]: 3%
Knockdown Rate @ 30 minutes [2, 9]: 45%
Mortality Rate @ 60 minutes [2, 9]: 100%
Mortality Rate @ 120 minutes [2, 9]: 100%
Mortality Rate @ 240 minutes [2, 9]: 100%
Knockdown Rate @ 10 minutes [2, 6]: 0%
Knockdown Rate @ 15 minutes [2, 6]: 8%
Knockdown Rate @ 30 minutes [2, 6]: 60%
Mortality Rate @ 60 minutes [2, 6]: 100%
Mortality Rate @ 120 minutes [2, 6]: 100%
Mortality Rate @ 240 minutes [2, 6]: 100%
Mortality Rate @ 2 hours [3, 9]: 85%
Mortality Rate @ 1 day [3, 9]: 100%
Mortality Rate @ 2 hours [3, 6]: 75%
Mortality Rate @ 1 day [3, 6]: 100%
Knockdown Rate @ 15 minutes [4, 7]: 0%
Knockdown Rate @ 30 minutes [4, 7]: 0%
Knockdown Rate @ 60 minutes [4, 7]: 19%
Knockdown Rate @ 120 minutes [4, 7]: 19%
Knockdown Rate @ 240 minutes [4, 7]: 48%
Mortality Rate @ 1 day [4, 7]: 3%
Knockdown Rate @ 15 minutes [4, 8]: 0%
Knockdown Rate @ 30 minutes [4, 8]: 19%
Knockdown Rate @ 60 minutes [4, 8]: 59%
Knockdown Rate @ 120 minutes [4, 8]: 63%
Knockdown Rate @ 240 minutes [4, 8]: 100%
Mortality Rate @ 1 day [4, 8]: 63%

C/C(=N\C#N)N(C)Cc1ccc(Cl)nc1 [B, (E)-N^1-[(6-chloro-3-pyridyl)methyl]-N^2-cyano-N^1-methylacetamidine]
Knockdown Rate @ 10 minutes [1, 10]: 0%
Knockdown Rate @ 15 minutes [1, 10]: 0%
Knockdown Rate @ 30 minutes [1, 10]: 10%
Mortality Rate @ 60 minutes [1, 10]: 5%
Mortality Rate @ 120 minutes [1, 10]: 65%
Mortality Rate @ 240 minutes [1, 10]: 90%
Knockdown Rate @ 10 minutes [1, 11]: 10%
Knockdown Rate @ 15 minutes [1, 11]: 3%
Knockdown Rate @ 30 minutes [1, 11]: 5%
Mortality Rate @ 60 minutes [1, 11]: 13%
Mortality Rate @ 120 minutes [1, 11]: 98%
Mortality Rate @ 240 minutes [1, 11]: 100%
Knockdown Rate @ 10 minutes [1, 12]: 0%
Knockdown Rate @ 15 minutes [1, 12]: 15%
Knockdown Rate @ 30 minutes [1, 12]: 15%
Mortality Rate @ 60 minutes [1, 12]: 60%
Mortality Rate @ 120 minutes [1, 12]: 100%
Mortality Rate @ 240 minutes [1, 12]: 100%
Knockdown Rate @ 10 minutes [2, 8]: 0%
Knockdown Rate @ 15 minutes [2, 8]: 13%
Knockdown Rate @ 30 minutes [2, 8]: 38%
Mortality Rate @ 60 minutes [2, 8]: 53%
Mortality Rate @ 240 minutes [2, 8]: 63%
Knockdown Rate @ 10 minutes [2, 13]: 0%
Knockdown Rate @ 15 minutes [2, 13]: 8%
Knockdown Rate @ 30 minutes [2, 13]: 38%
Mortality Rate @ 60 minutes [2, 13]: 58%
Mortality Rate @ 240 minutes [2, 13]: 63%
Knockdown Rate @ 10 minutes [2, 11]: 10%
Knockdown Rate @ 15 minutes [2, 11]: 35%
Knockdown Rate @ 30 minutes [2, 11]: 75%
Mortality Rate @ 60 minutes [2, 11]: 88%
Mortality Rate @ 120 minutes [2, 11]: 90%
Mortality Rate @ 240 minutes [2, 11]: 83%
Knockdown Rate @ 10 minutes [2, 12]: 8%
Knockdown Rate @ 15 minutes [2, 12]: 45%
Knockdown Rate @ 30 minutes [2, 12]: 88%
Mortality Rate @ 60 minutes [2, 12]: 80%
Mortality Rate @ 120 minutes [2, 12]: 98%
Mortality Rate @ 240 minutes [2, 12]: 80%
Knockdown Rate @ 10 minutes [2, 14]: 38%
Knockdown Rate @ 15 minutes [2, 14]: 75%
Knockdown Rate @ 30 minutes [2, 14]: 93%
Mortality Rate @ 60 minutes [2, 14]: 100%
Mortality Rate @ 120 minutes [2, 14]: 98%
Mortality Rate @ 240 minutes [2, 14]: 80%
Mortality Rate @ 2 hours [3, 11]: 30%
Mortality Rate @ 1 day [3, 11]: 95%
Mortality Rate @ 2 hours [3, 12]: 60%
Mortality Rate @ 1 day [3, 12]: 100%
Mortality Rate @ 2 hours [3, 14]: 95%
Mortality Rate @ 1 day [3, 14]: 100%
Knockdown Rate @ 15 minutes [4, 13]: 47%
Knockdown Rate @ 30 minutes [4, 13]: 47%
Knockdown Rate @ 60 minutes [4, 13]: 53%
Knockdown Rate @ 120 minutes [4, 13]: 41%
Knockdown Rate @ 240 minutes [4, 13]: 53%
Mortality Rate @ 1 day [4, 13]: 16%
Knockdown Rate @ 15 minutes [4, 9]: 69%
Knockdown Rate @ 30 minutes [4, 9]: 86%
Knockdown Rate @ 60 minutes [4, 9]: 72%
Knockdown Rate @ 120 minutes [4, 9]: 72%
Knockdown Rate @ 240 minutes [4, 9]: 78%
Mortality Rate @ 1 day [4, 9]: 28%
